In patent US9133158B2, “Bicyclic dihydroisoquinoline-1-one derivatives” (Hoffmann-La Roche Inc., priority 2011, dated 2015):

Legend:
human CYP11B1 = target: T1, human CYP11B1 (Homo sapiens, UniProt P15538); test: G-402 cellular enzyme assay, human CYP11B1 (cortisol release, HTRF); assay type: cell-based; settings: G-402 cells, 1 μM Deoxycortisol
T1 construct: expressed in transfected cells
T1 sequence (P15538 25-503): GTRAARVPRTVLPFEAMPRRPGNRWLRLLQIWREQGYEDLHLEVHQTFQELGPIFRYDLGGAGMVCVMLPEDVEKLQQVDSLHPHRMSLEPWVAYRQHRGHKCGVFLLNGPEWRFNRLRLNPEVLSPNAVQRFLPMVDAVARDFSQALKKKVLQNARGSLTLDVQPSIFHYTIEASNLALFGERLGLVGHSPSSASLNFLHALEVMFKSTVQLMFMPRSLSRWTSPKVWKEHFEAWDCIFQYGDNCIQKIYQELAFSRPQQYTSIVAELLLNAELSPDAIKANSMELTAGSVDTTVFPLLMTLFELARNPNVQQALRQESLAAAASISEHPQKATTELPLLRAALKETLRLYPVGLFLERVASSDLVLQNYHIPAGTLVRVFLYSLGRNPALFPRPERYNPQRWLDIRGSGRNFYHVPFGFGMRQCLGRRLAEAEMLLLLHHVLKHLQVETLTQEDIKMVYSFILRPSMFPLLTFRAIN
Outline: (§1)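 G-402 cells stably expressing human CYP11B1 or CYP11B2, in DMEM/F12 with 2.5% charcoal-treated FCS, were incubated 16 h with test compound and substrate (1 μM 11-deoxycortisol for CYP11B1; 1 μM deoxycorticosterone for CYP11B2). Cortisol or aldosterone in supernatant was quantified by HTRF; EC50 from 4-parameter MMF fit.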

human CYP11B2 = target: T2, human CYP11B2 (Homo sapiens, UniProt P19099); test: G-402 cellular enzyme assay, human CYP11B2 (aldosterone release, HTRF); assay type: cell-based; settings: G-402 cells, 1 μM Deoxycorticosterone
T2 construct: expressed in transfected cells
T2 sequence (P19099 25-503): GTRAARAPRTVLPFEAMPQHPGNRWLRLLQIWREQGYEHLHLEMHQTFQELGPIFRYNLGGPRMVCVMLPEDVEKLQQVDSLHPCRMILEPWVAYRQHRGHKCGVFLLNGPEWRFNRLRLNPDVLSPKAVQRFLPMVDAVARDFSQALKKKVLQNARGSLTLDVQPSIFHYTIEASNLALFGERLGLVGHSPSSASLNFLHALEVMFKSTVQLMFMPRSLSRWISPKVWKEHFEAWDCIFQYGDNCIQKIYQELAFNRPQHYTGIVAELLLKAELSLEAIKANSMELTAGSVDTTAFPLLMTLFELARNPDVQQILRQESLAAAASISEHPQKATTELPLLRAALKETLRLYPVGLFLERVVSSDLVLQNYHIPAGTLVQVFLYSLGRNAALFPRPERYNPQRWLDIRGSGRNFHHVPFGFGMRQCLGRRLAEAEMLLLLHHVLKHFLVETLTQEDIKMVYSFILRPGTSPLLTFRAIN
Outline: as §1

Row | Structure (SMILES) | EC50 (human CYP11B1) | EC50 (human CYP11B2)
1 | CCC(=O)N1CCC(Oc2cncc(N3C(=O)c4ccc(Cl)cc4C3(C)C)c2)C1 (stereo not drawn) [Example 444, 5-Chloro-3,3-dimethyl-2-[5-(1-propionyl-pyrrolidin-3-yloxy)-pyridin-3-yl]-2,3-dihydro-isoindol-1-one] | 0.514 µM | 0.0084 µM
2 | CC(C)(O)c1c(F)cncc1N1CCc2cc(Cl)ccc2C1=O [Example 70, 6-Chloro-2-[5-fluoro-4-(1-hydroxy-1-methyl-ethyl)-pyridin-3-yl]-3,4-dihydro-2H-isoquinolin-1-one] | 0.392 µM | 0.46 µM
3 | Cc1ncn(C)c1-c1cncc(N2CCc3cc(Cl)ccc3C2=O)c1 [Example 80, 6-Chloro-2-[5-(3,5-dimethyl-3H-imidazol-4-yl)-pyridin-3-yl]-3,4-dihydro-2H-isoquinolin-1-one] | 0.0581 µM | 0.0047 µM
4 | CC1(C)c2cc(Cl)ccc2C(=O)N1c1cncc(N2CC[C@H](O)C2)c1 [Example 454, 5-Chloro-2-[5-((S)-3-hydroxy-pyrrolidin-1-yl)-pyridin-3-yl]-3,3-dimethyl-2,3-dihydro-isoindol-1-one] | 0.062 µM | 0.0066 µM
5 | O=C1c2ccc(Cl)cc2CCN1c1cncc(CN2CCN(CCO)CC2)c1 [Example 165, 6-Chloro-2-{5-[4-(2-hydroxy-ethyl)-piperazin-1-ylmethyl]-pyridin-3-yl}-3,4-dihydro-2H-isoquinolin-1-one] | 0.0604 µM | 0.0035 µM
6 | O=C1c2ccc(Cl)cc2CCN1c1cncc(Cl)c1 [Example 4, 6-Chloro-2-(5-chloro-pyridin-3-yl)-3,4-dihydro-2H-isoquinolin-1-one] | 1.24 µM | 0.0671 µM
7 | CC[C@@H]1c2cc(Cl)ccc2C(=O)N1c1cncc2c1CC[C@@H]2NS(C)(=O)=O (single isomer, unassigned) [Example 367, N-[(S or R)-4-((R or S)-5-Chloro-3-ethyl-1-oxo-1,3-dihydro-isoindol-2-yl)-6,7-dihydro-5H-[2]pyrindin-7-yl]-methanesulfonamide] | 5.24 µM | 0.0621 µM
8 | CC(O)(c1cncc(N2CCc3cc(Cl)ccc3C2=O)c1)c1ccc(F)c(F)c1 (stereo not drawn) [Example 36, 6-Chloro-2-{5-[1-(3,4-difluoro-phenyl)-1-hydroxy-ethyl]-pyridin-3-yl}-3,4-dihydro-2H-isoquinolin-1-one] | 0.188 µM | 0.014 µM
9 | O=C1c2ccc(Cl)cc2CCN1c1cncc2c1CCCC2O (stereo not drawn) [Example 28, 6-Chloro-8′-hydroxy-3,4,5′,6′,7′,8′-hexahydro-[2,4′]biisoquinolinyl-1-one] | 0.757 µM | 0.104 µM
10 | O=C1c2ccc(Cl)cc2CCN1c1cccnn1 [Example 52, 6-Chloro-2-pyridazin-3-yl-3,4-dihydro-2H-isoquinolin-1-one] | 2.46 µM | 0.382 µM
11 | CC1(C)c2cc(Cl)ccc2C(=O)N1c1cncc(OC2CC2)c1 [Example 306, 5-Chloro-2-(5-cyclopropoxy-pyridin-3-yl)-3,3-dimethyl-2,3-dihydro-isoindol-1-one] | 0.114 µM | 0.0058 µM
12 | O=C1c2ccc(Cl)cc2CCN1c1cncc(-c2cc(F)ccc2F)c1 [Example 235, 6-Chloro-2-[5-(2,5-difluoro-phenyl)-pyridin-3-yl]-3,4-dihydro-2H-isoquinolin-1-one] | 0.221 µM | 0.0227 µM
13 | O=C(c1cncc(N2CCc3cc(Cl)ccc3C2=O)c1)N1CCC(F)(F)CC1 [Example 47, 6-Chloro-2-[5-(4,4-difluoro-piperidine-1-carbonyl)-pyridin-3-yl]-3,4-dihydro-2H-isoquinolin-1-one] | 23.2 µM | 1.03 µM
14 | O=C1c2ccc(Cl)cc2CCN1c1cncc(Cc2cccc(F)c2F)c1 [Example 210] | 0.13 µM | 0.0186 µM
15 | CC(C)Oc1cncc(N2C(=O)c3ccc(Cl)cc3C2(C)C)c1 [Example 304, 5-Chloro-2-(5-isopropoxy-pyridin-3-yl)-3,3-dimethyl-2,3-dihydro-isoindol-1-one] | 0.0781 µM | 0.0024 µM
16 | Cn1cc(-c2cncc(N3CCc4cc(Cl)ccc4C3=O)c2)cn1 [Example 239, 6-Chloro-2-[5-(1-methyl-1H-pyrazol-4-yl)-pyridin-3-yl]-3,4-dihydro-2H-isoquinolin-1-one] | 0.09 µM | 0.0105 µM
17 | Cn1ncc(Cl)c1-c1cncc(N2CCc3cc(Cl)ccc3C2=O)c1 [Example 421, 6-Chloro-2-[5-(4-chloro-2-methyl-2H-pyrazol-3-yl)-pyridin-3-yl]-3,4-dihydro-2H-isoquinolin-1-one] | 0.0324 µM | 0.0007 µM
18 | O=C1c2ccc(Cl)cc2CCN1c1cncc(-c2cn[nH]c2)c1 [Example 229, 6-Chloro-2-[5-(1H-pyrazol-4-yl)-pyridin-3-yl]-3,4-dihydro-2H-isoquinolin-1-one] | 0.745 µM | 0.204 µM
19 | CC1(C)c2ccc(Cl)cc2C(=O)N1c1cncc(CNS(C)(=O)=O)c1 [Example 408, N-[5-(5-Chloro-1,1-dimethyl-3-oxo-1,3-dihydro-isoindol-2-yl)-pyridin-3-ylmethyl]-methane-sulfonamide] | 14.3 µM | 0.923 µM
20 | CS(=O)(=O)NC1CCCc2c1cncc2N1CCc2cc(Cl)ccc2C1=O (single isomer, unassigned) [Example 325, N-((R or S)-6-Chloro-1-oxo-3,4,5′,6′,7′,8′-hexahydro-1H-[2,4′]biisoquinolinyl-8′-yl)-methanesulfonamide] | 4.49 µM | 0.0592 µM
21 | O=C1c2ccc(Cl)cc2CCN1c1cncc(C(O)c2ccccc2)c1 (stereo not drawn) [Example 34, 6-Chloro-2-[5-(hydroxy-phenyl-methyl)-pyridin-3-yl]-3,4-dihydro-2H-isoquinolin-1-one] | 0.287 µM | 0.0316 µM
22 | CC(C)N1CCN(Cc2cncc(N3C(=O)c4ccc(Cl)cc4C3(C)C)c2)C1=O [Example 416, 5-Chloro-2-[5-(3-isopropyl-2-oxo-imidazolidin-1-ylmethyl)-pyridin-3-yl]-3,3-dimethyl-2,3-dihydro-isoindol-1-one] | 0.723 µM | 0.006 µM
23 | O=C1c2ccc(Cl)cc2CCN1c1cncc(CN2CCC(O)C2)c1 (stereo not drawn) [Example 146, 6-Chloro-2-[5-(3-hydroxy-pyrrolidin-1-ylmethyl)-pyridin-3-yl]-3,4-dihydro-2H-isoquinolin-1-one] | 0.114 µM | 0.0398 µM
24 | O=C1c2ccc(Cl)cc2CCN1c1cncc(NS(=O)(=O)c2ccccc2)c1 [Example 219, N-[5-(6-Chloro-1-oxo-3,4-dihydro-1H-isoquinolin-2-yl)-pyridin-3-yl]-benzenesulfonamide] | 17.6 µM | 2.22 µM
25 | O=C1c2ccc(Cl)cc2CCN1c1cncc(CN2CCC[C@@H]2CO)c1 [Example 150, 6-Chloro-2-[5-((R)-2-hydroxymethyl-pyrrolidin-1-ylmethyl)-pyridin-3-yl]-3,4-dihydro-2H-isoquinolin-1-one] | 5.32 µM | 0.227 µM
26 | COc1ccc2c(n1)C(C)(C)N(c1cncc(F)c1)C2=O [Example 294, 6-(5-Fluoro-pyridin-3-yl)-2-methoxy-7,7-dimethyl-6,7-dihydro-pyrrolo[3,4-b] pyridin-5-one] | 9.85 µM | 0.204 µM
27 | Cn1ncnc1-c1cncc(N2CCc3cc(Cl)ccc3C2=O)c1 [Example 67, 6-Chloro-2-[5-(2-methyl-2H-[1,2,4]triazol-3-yl)-pyridin-3-yl]-3,4-dihydro-2H-isoquinolin-1-one] | 1.2 µM | 0.102 µM
28 | CC(c1cncc(N2CCc3cc(Cl)ccc3C2=O)c1)n1cccn1 (stereo not drawn) [Example 271, 6-Chloro-2-[5-(1-pyrazol-1-yl-ethyl)-pyridin-3-yl]-3,4-dihydro-2H-isoquinolin-1-one] | 0.251 µM | 0.0248 µM
29 | CC(=O)NC1CCCc2c1cncc2N1CCc2cc(Cl)ccc2C1=O (single isomer, unassigned) [Example 321, N-((S or R)-6-Chloro-1-oxo-3,4,5′,6′,7′,8′-hexahydro-1H-[2,4′]biisoquinolinyl-8′-yl)-acetamide] | 3.99 µM | 0.0556 µM
30 | O=C1c2ccc(Cl)cc2CCN1c1cncc(COc2ccccc2F)c1 [Example 199, 6-Chloro-2-[5-(2-fluoro-phenoxymethyl)-pyridin-3-yl]-3,4-dihydro-2H-isoquinolin-1-one] | 0.282 µM | 0.104 µM
